# Laboratory results: patent publication US10048254B2, “Cyclic-di-AMP specific detection” (priority 2013, dated 2018)
# Key:
# CabP [1] = biological target: T1, CabP (Streptococcus pneumoniae, UniProt A0A0H2ZNB5); assay: Mobility retardation of labeled c-di-AMP in 8% native PAGE gel; type: binding; details: 30 min at room temperature, FIG. 2B, read-out: affinity constant
# Experimental: (§1) The interaction between CabP and c-di-AMP was evaluated by multiple approaches. […] Proteins in the other half gel were transferred onto PVDF membrane and incubated with [α-^32P]c-di-AMP, which we generated from [α-^32P]ATP (MP Biomedicals) using purified Mycobacterium tuberculosis DacA (2). […] We then incubate labeled c-di-AMP with various concentration of CabP in the reaction with 50 mM Tris-HCl (pH7.5), 10 mM MgCl2, 5 mM CaCl2, 5 mM KCl, and 10% (v/v) glycerol. The samples were incubated for 30 min at room temperature and then separated the reactions with 8% native PAGE gel (3). […] However, the mobility of c-di-AMP was not retarded by PdxR (FIG. 2C), indicating the specificity.
# M. tuberculosis DacA = M. tuberculosis DacA (Mycobacterium tuberculosis, UniProt P9WNW5); assay: as above; type: binding; details: purified M. tuberculosis DacA, FIG. 2C
# Chain of M. tuberculosis DacA (P9WNW5 whole entry): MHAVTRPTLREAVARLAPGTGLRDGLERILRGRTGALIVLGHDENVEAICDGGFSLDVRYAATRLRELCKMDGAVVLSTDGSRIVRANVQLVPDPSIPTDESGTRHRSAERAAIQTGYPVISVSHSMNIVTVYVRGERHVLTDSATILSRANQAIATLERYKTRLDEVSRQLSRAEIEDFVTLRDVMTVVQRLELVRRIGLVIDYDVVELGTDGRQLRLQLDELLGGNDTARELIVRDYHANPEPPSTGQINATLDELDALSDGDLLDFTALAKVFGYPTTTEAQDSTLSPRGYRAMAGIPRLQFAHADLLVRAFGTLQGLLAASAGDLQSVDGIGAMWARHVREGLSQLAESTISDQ
# Experimental: as §1
# PdxR [2] = assay: Mobility retardation of labeled c-di-AMP in 8% native PAGE gel (control protein); type: binding; details: FIG. 2C
# CabP [3] = biological target: T1, CabP; assay: Competition of unlabeled nucleotides with labeled c-di-AMP for CabP, native gel; type: binding; details: 1,000-fold excess of unlabeled nucleotide, 1 μM CabP, FIG. 2D
# Experimental: FIGS. 2A-D Interaction of CabP with c-di-AMP. (A) CabP and PdxR (control) were loaded for SDS-PAGE. Gels were either stained with Coomassie Bright Blue (Staining) or blotted with labeled c-di-AMP (Blotting). M, molecular weight marker (Fisher Scientific). (B) Separation of CabP and c-di-AMP reactions with 8% native gel. (C) Mobility of c-di-AMP in the presence or absence of the indicated proteins. (D) Mobility of labeled c-di-AMP mixed with 1 μM CabP in the presence or absence of the indicated unlabeled nucleotides. “cold nt” refers to unlabeled nucleotide.
# as §1
# biotin-labeled c-di-AMP = assay: Binding of truncated forms of CabP to biotin-labeled c-di-AMP; details: proteins expressed from pET28a(+)
# Excerpt: To investigate the c-di-AMP binding region of CabP, truncated forms of CabP were expressed and their ability to bind c-di-AMP examined.
# Truncated forms included: P1, in which 15 amino acids were removed from the N-terminal of CabP; P2, which results from the removal of 94 amino acid residues from the C-terminal of CabP, thereby eliminating the TrkA_C region; and P3, in which both N- and C-terminal ends of CabP are truncated.
# All PCR products were cloned into pET28a(+) to express P1, P2, and P3. These proteins were then used to evaluate their interaction with c-di-AMP.
# No binding of P1, P2 or P3 was observed using biotin-labeled c-di-AMP, while binding to intact CabP expressed from pST2788 was normal.
# PdxR [4] = type: binding; details: PdxR control on PVDF membrane, FIG. 2A
# CabP [5] = biological target: T1, CabP; assay: Blot of SDS-PAGE-separated protein on PVDF membrane incubated with [α-32P]c-di-AMP; type: binding; details: FIG. 2A
# Experimental: as §1
# CabP [6] = biological target: T1, CabP; assay: ELISA on CabP-coated plate, optimization of biotin-AHC-c-di-AMP concentration; type: binding
# Experimental: The binding of c-di-AMP by CabP is very specific with good affinity, therefore, an ELISA method using a solid support coated with CabP to detect c-di-AMP was developed (FIG. 4). The coating concentration of CabP (Table 1) and the concentration of biotin-AHC-c-di-AMP (Table 2) were optimized.
# In one embodiment, a 96-well microtiter plate was coated with CabP at 50 μg/ml in coating buffer (3.03 g/L Na2CO3 and 6.0 g/L NaHCO3), 100 μl/well, sealed and incubated overnight at 4° C.
# The coating solution was removed by washing three times, that is, by filling the wells with 200 μl phosphate buffered saline (PBS) containing 0.05% (v/v) polysorbate 20 (TWEEN®-20), and aspirating.
# The wells of the microtiter plate were then blocked with a blocking solution (1% BSA in PBS), 100 μl/well, and the plate incubated 1 h at room temperature.
# To remove the blocking solution, the plates were washed 3 times with PBS containing 0.05% (v/v) polysorbate 20 (TWEEN®-20). 25 nM biotin-labeled c-di-AMP was diluted in 50 mM Tris-HCl (pH 8.0) or other appropriate media/solution and mixed with two-fold serial diluted standards (from 200 nM to 6.25 nM), or samples prepared within 50 mM Tris-HCl (pH 8.0) or the same media/solution. 100 μl/well, incubate 2 h at room temperature.
# The standards and the samples were removed, and the wells washed 3 times with PBS containing 0.05% (v/v) polysorbate 20 (TWEEN®-20).
# Streptavidin-HRP (Thermo Scientific) diluted at 1:10,000 with PBS containing 0.05% (v/v) polysorbate 20 (TWEEN®-20), was added to the wells, 100 μl/well, and the plate incubated 1 h at room temperature.
# The streptavidin-HRP solution was removed by washing the wells 3 times with PBS containing 0.05% (v/v) polysorbate 20 (TWEEN®-20).
# A substrate solution [20 ml 0.1 M citric acid (pH 5.0), 20 μl 30% H2O2, and 10 mg o-phenylenediamine (OPD) (Sigma, 1 tablet)], 100 μl/well, was added to each well. After approximately 30 minutes (typical) or sufficient color development, 100 μl/well stop solution (2 N H2SO4) was added to each well. The absorbance of each well was read with a plate reader at 492 nm.
# T1 sequence (A0A0H2ZNB5 whole entry, added parts left off): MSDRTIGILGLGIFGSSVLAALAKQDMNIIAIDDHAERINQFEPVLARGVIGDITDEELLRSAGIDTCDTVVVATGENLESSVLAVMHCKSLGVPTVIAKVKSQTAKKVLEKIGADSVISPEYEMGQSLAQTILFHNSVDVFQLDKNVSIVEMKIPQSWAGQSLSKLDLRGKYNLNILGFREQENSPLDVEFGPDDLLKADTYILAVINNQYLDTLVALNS
molecule,measurement,setting,value
"Nc1ncnc2c1ncn2[C@@H]1O[C@@H]2COP(=O)(O)O[C@H]3[C@@H](O)[C@H](n4cnc5c(N)ncnc54)O[C@@H]3COP(=O)(O)O[C@H]2[C@H]1O [c-di-AMP, cyclic di-adenosine monophosphate]",Kd,CabP [1],~0.15 µM
same,retardation of c-di-AMP mobility,M. tuberculosis DacA,retardation was also observed
same,retardation of c-di-AMP mobility,PdxR [2],not retarded
same,free labeled c-di-AMP in the presence of unlabeled nucleotide,CabP [3],free c-di-AMP could be observed
CabP,binding to biotin-labeled c-di-AMP,biotin-labeled c-di-AMP,normal
[α-^32P]c-di-AMP [labeled c-di-AMP],binding of labeled c-di-AMP to blotted protein,PdxR [4],not
same,binding of labeled c-di-AMP to blotted protein,CabP [5],bound
biotin-AHC-c-di-AMP [B-c-di-AMP],"ELISA signal, Binding Buffer",CabP [6]; [B-c-di-AMP] 0.78125,0.158
same,"ELISA signal, Binding Buffer",CabP [6]; [B-c-di-AMP] 1.5625,0.2503
same,"ELISA signal, Binding Buffer",CabP [6]; [B-c-di-AMP] 3.125,0.4685
same,"ELISA signal, Binding Buffer",CabP [6]; [B-c-di-AMP] 6.25,0.7071
same,"ELISA signal, Binding Buffer",CabP [6]; [B-c-di-AMP] 12.5,0.8821
same,"ELISA signal, Binding Buffer",CabP [6]; [B-c-di-AMP] 25,1.1813
same,"ELISA signal, Binding Buffer",CabP [6]; [B-c-di-AMP] 50,1.352
same,"ELISA signal, Binding Buffer",CabP [6]; [B-c-di-AMP] 100,1.4377
